Results from PubChem BioAssay AID2060903 (Molecular Pharmacology Branch, DTP, NCI, 2025).

Tested on: 377384-186-R-J1-PDC complex spheroid viability
Test: Anticancer human tumor 377384-186-R-J1-PDC patient-derived pancreatic carcinoma cell line growth inhibition [RAS]
Details: for viability, T/C: stronger effect = lower value
Outline: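 Tumour cells grown as complex spheroids with HUVEC endothelial cells and mesenchymal stem cells, treated with RAS pathway inhibitor combinations. Each agent spans half-log steps from near clinical Cmax, or 10 microM where Cmax is unknown.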
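Further: spheroids exposed to compounds for seven days before readout.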

SMILES: Nc1ccn(C2OC(CO)C(O)C2(F)F)c(=O)n1 (stereo unspecified) + C=CC(=O)N1CCN(c2nc(OCC3CCCN3C)nc3c(F)c(-c4nc(N)cc(C)c4C(F)(F)F)c(Cl)cc23)C(C)C1
- IC50 (curve of first compound, second compound 0.00316 µM): 6.73 nM
- IC50 (curve of first compound, second compound 0.01 µM): 7.09 nM
- IC50 (curve of first compound, second compound 0.0316 µM): 6.58 nM
- IC50 (curve of first compound, second compound 0.1 µM): 5.53 nM
- IC50 (curve of first compound, second compound 0.316 µM): 7.31 nM
- IC50 (curve of first compound, second compound 1 µM): 6.18 nM
- viability, T/C (second compound 0.00316 µM, first compound 0.00316 µM): 76.9%
- viability, T/C (second compound 0.00316 µM, first compound 0.01 µM): 35.9%
- viability, T/C (second compound 0.00316 µM, first compound 0.0316 µM): 11.5%
- viability, T/C (second compound 0.00316 µM, first compound 0.1 µM): 4.72%
- viability, T/C (second compound 0.00316 µM, first compound 0.316 µM): 3.54%
- viability, T/C (second compound 0.00316 µM, first compound 1 µM): 2.18%
- viability, T/C (second compound 0.01 µM, first compound 0.00316 µM): 81.7%
- viability, T/C (second compound 0.01 µM, first compound 0.01 µM): 36.5%
- viability, T/C (second compound 0.01 µM, first compound 0.0316 µM): 13.4%
- viability, T/C (second compound 0.01 µM, first compound 0.1 µM): 4.91%
- viability, T/C (second compound 0.01 µM, first compound 0.316 µM): 3.97%
- viability, T/C (second compound 0.01 µM, first compound 1 µM): 3.71%
- viability, T/C (second compound 0.0316 µM, first compound 0.00316 µM): 74%
- viability, T/C (second compound 0.0316 µM, first compound 0.01 µM): 36.3%
- viability, T/C (second compound 0.0316 µM, first compound 0.0316 µM): 9.49%
- viability, T/C (second compound 0.0316 µM, first compound 0.1 µM): 4.74%
- viability, T/C (second compound 0.0316 µM, first compound 0.316 µM): 3.22%
- viability, T/C (second compound 0.0316 µM, first compound 1 µM): 2.97%
- viability, T/C (second compound 0.1 µM, first compound 0.00316 µM): 60.4%
- viability, T/C (second compound 0.1 µM, first compound 0.01 µM): 38.9%
- viability, T/C (second compound 0.1 µM, first compound 0.0316 µM): 12%
- viability, T/C (second compound 0.1 µM, first compound 0.1 µM): 3.63%
- viability, T/C (second compound 0.1 µM, first compound 0.316 µM): 3.27%
- viability, T/C (second compound 0.1 µM, first compound 1 µM): 2.81%
- viability, T/C (second compound 0.316 µM, first compound 0.00316 µM): 80.5%
- viability, T/C (second compound 0.316 µM, first compound 0.01 µM): 38.5%
- viability, T/C (second compound 0.316 µM, first compound 0.0316 µM): 13.1%
- viability, T/C (second compound 0.316 µM, first compound 0.1 µM): 4.24%
- viability, T/C (second compound 0.316 µM, first compound 0.316 µM): 3.5%
- viability, T/C (second compound 0.316 µM, first compound 1 µM): 3.38%
- viability, T/C (second compound 1 µM, first compound 0.00316 µM): 65.3%
- viability, T/C (second compound 1 µM, first compound 0.01 µM): 38.8%
- viability, T/C (second compound 1 µM, first compound 0.0316 µM): 16.7%
- viability, T/C (second compound 1 µM, first compound 0.1 µM): 5.53%
- viability, T/C (second compound 1 µM, first compound 0.316 µM): 4.43%
- viability, T/C (second compound 1 µM, first compound 1 µM): 4.1%

SMILES: CCN1CCN(Cc2ccc(Nc3ncc(F)c(-c4cc(F)c5nc(C)n(C(C)C)c5c4)n3)nc2)CC1
- viability, T/C (compound 0.00316 µM): 98.7% [middle of 4 runs]
- viability, T/C (compound 0.01 µM): 79.1% [middle of 4 runs]
- viability, T/C (compound 0.0316 µM): 70.3% [middle of 4 runs]
- viability, T/C (compound 0.1 µM): 60% [middle of 4 runs]
- viability, T/C (compound 0.316 µM): 44.2% [middle of 4 runs]
- viability, T/C (compound 1 µM): 38% [middle of 4 runs]
- IC50 (curve of compound): 194 nM [middle of 4 runs]

SMILES: Cc1nc(N2CCC3(CC2)COC(C)C3N)c(CO)nc1Sc1ccnc(N)c1Cl (stereo unspecified) + CCn1c(-c2cc(N3CCN(C)CC3)cnc2C(C)OC)c2c3cc(ccc31)-c1csc(n1)CC(NC(=O)C1CC1C)C(=O)N1CCCC(N1)C(=O)OCC(C)(C)C2
- IC50 (curve of first compound, second compound 0.000949 µM): < 31.6 nM
- IC50 (curve of first compound, second compound 0.003 µM): < 31.6 nM
- IC50 (curve of first compound, second compound 0.00949 µM): < 31.6 nM
- IC50 (curve of first compound, second compound 0.03 µM): < 31.6 nM
- IC50 (curve of first compound, second compound 0.0949 µM): < 31.6 nM
- IC50 (curve of first compound, second compound 0.3 µM): < 31.6 nM
- viability, T/C (second compound 0.000949 µM, first compound 0.0316 µM): 28.9%
- viability, T/C (second compound 0.000949 µM, first compound 0.1 µM): 15.6%
- viability, T/C (second compound 0.000949 µM, first compound 0.316 µM): 5.63%
- viability, T/C (second compound 0.000949 µM, first compound 1 µM): 3.93%
- viability, T/C (second compound 0.000949 µM, first compound 3.16 µM): 2.14%
- viability, T/C (second compound 0.000949 µM, first compound 10 µM): 1.26%
- viability, T/C (second compound 0.003 µM, first compound 0.0316 µM): 5.98%
- viability, T/C (second compound 0.003 µM, first compound 0.1 µM): 3.1%
- viability, T/C (second compound 0.003 µM, first compound 0.316 µM): 1.7%
- viability, T/C (second compound 0.003 µM, first compound 1 µM): 1.39%
- viability, T/C (second compound 0.003 µM, first compound 3.16 µM): 0.72%
- viability, T/C (second compound 0.003 µM, first compound 10 µM): 0.71%
- viability, T/C (second compound 0.00949 µM, first compound 0.0316 µM): 2.71%
- viability, T/C (second compound 0.00949 µM, first compound 0.1 µM): 2.19%
- viability, T/C (second compound 0.00949 µM, first compound 0.316 µM): 1.28%
- viability, T/C (second compound 0.00949 µM, first compound 1 µM): 1.66%
- viability, T/C (second compound 0.00949 µM, first compound 3.16 µM): 0.87%
- viability, T/C (second compound 0.00949 µM, first compound 10 µM): 0.71%
- viability, T/C (second compound 0.03 µM, first compound 0.0316 µM): 2.03%
- viability, T/C (second compound 0.03 µM, first compound 0.1 µM): 1.9%
- viability, T/C (second compound 0.03 µM, first compound 0.316 µM): 1.46%
- viability, T/C (second compound 0.03 µM, first compound 1 µM): 1.09%
- viability, T/C (second compound 0.03 µM, first compound 3.16 µM): 0.71%
- viability, T/C (second compound 0.03 µM, first compound 10 µM): 0.28%
- viability, T/C (second compound 0.0949 µM, first compound 0.0316 µM): 1.82%
- viability, T/C (second compound 0.0949 µM, first compound 0.1 µM): 1.54%
- viability, T/C (second compound 0.0949 µM, first compound 0.316 µM): 1.69%
- viability, T/C (second compound 0.0949 µM, first compound 1 µM): 0.9%
- viability, T/C (second compound 0.0949 µM, first compound 3.16 µM): 0.56%
- viability, T/C (second compound 0.0949 µM, first compound 10 µM): 0.2%
- viability, T/C (second compound 0.3 µM, first compound 0.0316 µM): 1.8%
- viability, T/C (second compound 0.3 µM, first compound 0.1 µM): 1.68%
- viability, T/C (second compound 0.3 µM, first compound 0.316 µM): 1.39%
- viability, T/C (second compound 0.3 µM, first compound 1 µM): 1.08%
- viability, T/C (second compound 0.3 µM, first compound 3.16 µM): 0.69%
- viability, T/C (second compound 0.3 µM, first compound 10 µM): 0.21%
